Experimental data published in patent US6743923B2, “Antirheumatic agent” (Shionogi & Co., Ltd., priority 1997, dated 2004).

System: transcription factor NFκB
Assay: Suppressive activity on transcription factor NFκB (HIV-1 LTR luciferase reporter in Jurkat cell)
Type: cell-based, human
Settings: for luciferase activity (%) mean ± standard error: TPA-PHA = 100
Method: A recombinant plasmid (pGV-B.HIV-1LTR), in which HIV-1 (AIDS) virus promoter LTR containing two NFκB binding sites is ligated to upstream of firefly luciferase gene, was constructed, and the DNA was purified. This plasmid DNA was introduced by electroporation into a Jurkat cell, a human T cell leukemic cell line, and the cell was cultured for 48 hours. Subsequently, phytohemagglutinin (PHA, 0.5%), phorbol ester (TPA (12-O-tetradecanoylphorbol 13-acetate), 25 ng/mL), and a predetermined concentration of the test compound were added thereto to allow to react for 2 hours, and the cells were harvested, and the luciferase activity in the cellular extract was measured.

CCN1CC/C(=C\c2cc(C(C)(C)C)c(O)c(C(C)(C)C)c2)S1(=O)=O [Compound Ia, (E)-2-Ethyl-5-(3,5-di-tert-butyl-4-hydroxy)benzylidene-1,2-isothiazolidine-1,1-dioxide]
luciferase activity (%) mean ± standard error (Experiment-1, 5 μM): 82.2 ± 8.3%
luciferase activity (%) mean ± standard error (Experiment-1, 10 μM): 79.6 ± 5.4%
luciferase activity (%) mean ± standard error (Experiment-1, 20 μM): 54.6 ± 4.3%
luciferase activity (%) mean ± standard error (Experiment-1, 50 μM): 53.5 ± 5.9%
luciferase activity (%) mean ± standard error (Experiment-2, 20 μM): 86.4 ± 1.9%
luciferase activity (%) mean ± standard error (Experiment-2, 50 μM): 75.1%
luciferase activity (%) mean ± standard error (Experiment-2, 100 μM): 61.1 ± 3.9%
concentration at which luciferase activity was inhibited (Jurkat cell, TPA-PHA): 5 to 50 µM
